Laboratory results taken from US11332483B2, “Naphthoquinone containing gold carbene complexes and methods of uses thereof” (BOARD OF REGENTS, THE UNIVERSITY OF TEXAS SYSTEM, priority 2017, dated 2022).
Where two headings read alike, the source gives them in different places.

What was measured:
A549 lung cancer cells [1] = experiment: ICP-MS detection of intracellular Au (cellular uptake)
Method: Roughly 7−8×10^6 cells were grown to 70-80% confluence in T-75 cell culture flasks (Thermo 130190) and treated with respective compound in RPMI medium supplemented with 10% FBS and antibiotics for the desired incubation time. The medium was then removed and cells were washed with 8 mL 1× warm PBS. 2 mL 1×PBS was then added to each flask, and the cells were removed by scraping. Each cell suspension was then pipetted into a clean, labeled 15 mL centrifuge tube (Thermo 339650). Cells were pelleted by centrifuging at 1,000 rpm for 5 min in an Eppendorf 5804 with a swing-bucket rotor. The supernatant was removed by vacuum aspiration, and the pellet was resuspended in 50 μL autoclaved deionized water. Suspension/lysates were then kept at −80° C. until further use. After thawing, the lysates were then sonicated using a Branson Digital Sonifier, and 5 μL aliquots were taken for determination of protein content of the sample. Lysates were digested with 80 μL aqua regia and heated to 65° C. for 1 h. Digested lysates were diluted with 4 mL 3% Trace Metal Grade HCl and gold content was measured on a Perkin Elmer NexION 300× set to detect gold at 197 m/z. Gold concentrations were quantified using the linear range of a standard curve generated by serial dilution of an ICP-MS gold standard (Ricca MSAU1KH-100) in 3% HCl. Values were then normalized to protein content as determined using a Modified Lowry Protein Assay Kit (Thermo 23240) and known concentrations of bovine serum albumin (Fisher 9048-46-8).
The Modified Lowry Assay was used to determine the protein content of each sample for normalization purposes. The standard curve for each run was made from a 2-fold serial dilution of fresh 5 mg/mL BSA solution. Aliquots were diluted to within the linear range of the standard curve using autoclaved DI water, and subjected to the Modified Lowry Assay in round-bottomed 96-well clear plates (Fisher 12565500). […] All other aspects of the procedure were as detailed in the microplate procedure instructions that come with the kit.

A549 cells [2] = experiment: Detection of intracellular ROS by flow cytometry (CM-H2DCFDA); format: cell-based, human; conditions: for intracellular ROS increase: A549, dose responsive, 6 h, in words
Method: To establish whether or not the complexes of this disclosure would increase intracellular ROS levels, A549 cells were treated with each complex in a dose responsive manner.
Tumor cells (1×10^6) were plated in a 6-well plate overnight and then incubated with media containing various complexes described at concentrations of 0.625-2.5 μM. Control cells were treated with vehicle only. After a 6 h. incubation, the cells were washed with PBS, detached with 0.250 mL 1× trypsin, collected in a 15 mL conical tube, and pelleted by centrifugation (3 min @ 300 g) at 5° C. The resulting pellet was again washed 2× with cold PBS and pelleted at 5° C. […] The cells were then pelleted, washed with 2 mL PBS, and re-suspended in PBS containing 2 μg/mL propidium iodide (PI, Chemodex P0023) for a final cell concentration of 0.5×10^6 cells/mL. Control samples of unstained cells, cells stained with only CM-H2DCFDA, and cells stained with only PI were also prepared. Each sample was added to one well of a 96-well plate. Samples were then subjected to FACS analysis using a Millipore Guava easyCyte 8 and analyzed using the Guava inCyte software.

[3] = tested on: thioredoxin reductase (TrxR) in A549 cells; experiment: Lipoate reduction assay of thioredoxin reductase activity in live cells; format: cell-based, human; conditions: for inhibition of TrxR (lipoate reduction): 6 h; for TrxR activity by lipoate reduction, time and dose dependence: A549, in words
Method: To assess whether any or all of the present gold complexes could serve as TrxR inhibitors, standard tests involving the reduction of the oxidized form of the cell-permeable cofactor lipoate to its corresponding reduced form, dihydrolipoate, were carried out. […] [Cl] and 5 (cocktail), auranofin, and doxorubicin for 6 h. Post treatment, the live cells were monitored colorimetrically over 180 min for their ability to reduce lipoate (FIG. 5A).
Cells were harvested and seeded at a density of 10,000 cells/well A549 in 96-well culture plates. They were then incubated overnight at 37° C. and 5% CO2. The next day, appropriate serial dilutions of drug stock in culture media were performed, and 100 μL of the appropriate solution were added to each well. Cells were returned to the incubator for 6 h. Afterwards, the liquid was then removed from each well by vacuum aspiration and replaced by 100 μL of 5 mM lipoate (Tokyo Chemical Industry Co., Ltd. L0207) and 1 mM DTNB (Acros Organics 117540050) in HBSS (Life tech 14025-092). The absorbance of each well at […] was recorded immediately and once every 20 min for three h on a microplate reader (Molecular Devices, Sunnyvale, Calif.). Plates were covered with aluminum foil between readings.

A549 lung cancer cells [4] = experiment: Cell proliferation (MTT) assay in A549 lung cancer cells; format: cell-based, human; conditions: for Fold Difference relative to 1: A549 IC50 relative to complex 1
Method: (§1) Cells were harvested and seeded into 96-well culture plates (Costar 07-200-90) in 100 μL of culture media. They were allowed to incubate overnight at 37° C. in the presence of 5% CO2. A549 was seeded at a density of 1000 cells/well, A2780 at 2500 cells/well, A2780CP at 3000 cells/well, and PC-3 at 2000 cells/well. The next day, appropriate serial dilutions of drug stocks in culture media were made. To each well of a 96 well plate was added 100 μL of the appropriate solution. After a total of three days, a […] aliquot of 3 mg/mL tetrazolium dye, 344,5-dimethylthiazol-2-yl)-2,5-diphenyltetrazolium bromide (Alfa Aesar L11939) was added to each well, followed by a 4 hr incubation period at 37° C. The medium was then removed, the resulting formazan was dissolved in […] DMSO and the respective absorbances were measured at 560-650 nm using a microplate reader (Molecular Devices, Sunnyvale, Calif.). Absorbance values were corrected for background and then normalized to wells containing untreated cells to allow for plate-to-plate comparisons. The data are shown as mean inhibition of proliferation or growth as a percentage of control cells and are from 2-3 replicate experiments. Resulting dose response curves were subjected to linear regression analysis (Origin by OriginLab, Inc.) for determination of IC50 values.

[5] = Electrochemical analysis (differential pulse voltammetry) in DMSO; format: physicochemical; conditions: 0.1M [N(nBu)4][PF6], 0.1 mM analyte, vs SCE
Method: [Cl] (Guth et al., 2011; Gómez et al., 2003).
1,3-Dimesitylnapthoquinimidazolium chloride (Sanderson et al., 2006; Tennyson et al., 2010), (1,3-dimesityl-4,5-naphthoquino-imidazol-2-ylidene)-silver(I) chloride (Sanderson et al., 2006; Tennyson et al., 2010), (C4H2S)AuCl (Hashmi, et al., 2010) were prepared according to the literature procedures. All other reagents were purchased from commercial sources and used as received, including: [((CH3)3Si)2N]Na (NaHMDS) and silver(I) oxide. CD2Cl2 (99.9%) was purchased from Acros Laboratories in glass ampules and used as received. Solvents were either dried with a solvent purification system from the Inert Innovative Technology, Inc. (dichloromethane, diethyl ether, hexanes, tetrahydrofuran and toluene) or freshly distilled over 3 Å molecular sieves and degassed using three consecutive freeze-pump-thaw cycles prior to use. UV-vis spectra were obtained at ambient temperature with a Hewlett-Packard 8452A diode array spectrophotometer with molar absorptivities reported in M^−1 cm^−1. ^1H and ^13C NMR spectra were recorded on Bruker 300 MHz spectrometer. Spectra were referenced to the residual solvent as an internal standard, for ^1H NMR: CD2Cl2, 5.32 ppm and ^13C NMR: CD2Cl2, 53.84 ppm. High-resolution mass spectra (HRMS) were obtained with an Agilent Technologies 6530 Accurate Mass Q-TOF LC/MS (ESI) and are reported as m/z (relative intensity). Electroanalytical measurements were performed on a CHI620E electrochemical workstation using a silver wire quasi-reference electrode, a platinum disk working electrode and a Pt wire auxiliary electrode in a three-electrode cell under an atmosphere of nitrogen. […] All potentials listed herein were determined by differential pulse voltammetry and referenced to a saturated calomel electrode (SCE) by shifting ferrocene^0/+ to 0.435 V (DMSO) (Aranzaes et al., 2006). Spectroelectrochemistry measurements were obtained at ambient temperature with a custom designed three-electrode cell using Hewlett-Packard 8452A diode array spectrophotometer and CHI620E. Elemental analyses were performed by Midwest Microlab, LLC in Indianapolis, Ind. […] Trypsin (Hyclone SH30236.01) and Dulbecco's Phosphate Buffer Saline (Sigma R5886) were used for general cell maintenance and harvesting. Cell lines were obtained from the ATCC (A549 and PC-3) and Prof. Zahid Siddik at MD Anderson (A2780 and A2780CP). Thiazolyl blue tetrazolium bromide (Alfa Aesar L11939) was used for cell proliferation assays. Cell culture plastic ware consisted of generic T-75 flasks, 80.5 mm diameter culture dishes, and treated 96-well plates.

[6] = tested on: A2780 ovarian (wt-p53, platinum sensitive); experiment: Cell proliferation (MTT) assay in A2780 ovarian cells; format: cell-based; conditions: Table 3; error is standard error of the mean
Method: (§2) Further anti-proliferation studies were carried out with complex 1 and its naphthoquinone component 4[H][Cl] using the following cell lines: A2780 ovarian (a wt-p53 cell line sensitive to platinum treatment), 2780CP ovarian (isogenic to A2780 but expressing multi-drug resistance (MDR)), and PC-3 prostate (p53 null) (Table 3).
as §1, with “The data are shown as mean inhibition of proliferation or growth as a percentage of control cells and are from 2-3 replicate experiments. Resulting dose response curves were subjected to linear regression analysis (Origin by OriginLab, Inc.) for determination of IC50 values.” left out

[7] = tested on: 2780CP ovarian (multi-drug resistant); experiment: Cell proliferation (MTT) assay in 2780CP ovarian cells; format: cell-based; conditions: Table 3; error is standard error of the mean
Method: as §2
as §1, with “The data are shown as mean inhibition of proliferation or growth as a percentage of control cells and are from 2-3 replicate experiments. Resulting dose response curves were subjected to linear regression analysis (Origin by OriginLab, Inc.) for determination of IC50 values.” left out

PC-3 prostate (p53 null) = experiment: Cell proliferation (MTT) assay in PC-3 prostate cells; format: cell-based; conditions: Table 3; error is standard error of the mean
Method: as §2
as §1, with “The data are shown as mean inhibition of proliferation or growth as a percentage of control cells and are from 2-3 replicate experiments. Resulting dose response curves were subjected to linear regression analysis (Origin by OriginLab, Inc.) for determination of IC50 values.” left out

A549 cells [8] = conditions: A549, 24 h
Method: Control cells were treated with vehicle only. At 24 h, the media was collected and the cells were washed with PBS. The PBS washing was collected and the attached cells were then subjected to 0.5× trypsin (diluted with PBS) for 2 min. All media and washings were collected, pelleted by centrifugation (3 min @ 300 g) and washed twice with cold PBS. […] After this, 100 μL of cell suspension was added to 1.5 mL centrifuge tubes, followed by 5 μL each of Annexin V-FITC and propidium iodide (PI, 50 μg/mL) solution. Control samples of unstained cells, cells stained with only Annexin V-FITC, and cells stained with only PI were also prepared. Samples were allowed to incubate in the dark for 15 min at ambient temperature. After incubation, each sample was diluted with 200 μL of Annexin V binding buffer, and the resulting 300 μL sample was added to one well of a 96-well plate. Samples were then subjected to FACS analysis using a Millipore Guava easyCyte 8 and analyzed using Guava inCyte software.

[9] = A549, low concentrations (0.1-0.6 μM)
[10] = A549 lung cancer cells, MTT, 72 h, read-out: IC50
[11] = A549, higher concentrations (1.25-5.0 μM)

Row | Structure (SMILES) | intracellular ROS increase (A549 cells [2]) | inhibition of TrxR (lipoate reduction) [3, 9] | Fold Difference relative to 1 (A549 lung cancer cells [4]) | IC50 (A549 lung cancer cells [4]; [10]) | TrxR activity by lipoate reduction, time and dose dependence [3] | E1/2 (V) DPV, first reduction, formation of semiquinone radical [5] | E1/2^b (V) DPV, second reduction, formation of quinone dianion [5] | inhibition of TrxR (lipoate reduction) [3, 11] | also measured
1 | CC(=O)OC[C@H]1O[C@@H]([S-])[C@H](OC(C)=O)[C@@H](OC(C)=O)[C@@H]1OC(C)=O.CCP(CC)CC.[Au+] [Auranofin, auranofin] | minimal or no ROS increase | inhibition of TrxR was apparent | 22.9 | 1670 ± 50 nM | – | – | – | – | increase in intracellular Au concentrations as compared to complex 1 (A549 lung cancer cells [1]): 2-5 fold
2 | Cc1cc(C)c(-n2c3c([n+](-c4c(C)cc(C)cc4C)[c]2[Au-][c]2n(-c4c(C)cc(C)cc4C)c4c([n+]2-c2c(C)cc(C)cc2C)C(=O)c2ccccc2C4=O)C(=O)c2ccccc2C3=O)c(C)c1.[Cl-] [Compound 2] | performed similarly | – | 1 | – | performed similarly | −0.46 V | −1.31 V | – | presence of CRT on cells (Panc-02 cells; Panc-02, 0.1 μM): 6.1±1.6 % of cells; presence of CRT on cells (Panc-02 cells; Panc-02, 1.0 μM): 33.4±5.8 % of cells
3 | Cc1cc(C)c(-n2c3c([n+](-c4c(C)cc(C)cc4C)[c]2[Au-][Cl])C(=O)c2ccccc2C3=O)c(C)c1 [Compound 3, (1,3-Dimesityl-4,5-naphthoquino-imidazol-2-ylidene)-gold(I) Chloride] | minimal or no ROS increase | – | 165 | 12100 nM | – | −0.47 V | −1.31 V | remained inactive | intracellular Au levels (ICP-MS) (A549 lung cancer cells [1]): no intracellular Au was detected
4 | Cc1cc(C)c(-n2c[n+](-c3c(C)cc(C)cc3C)c3c2C(=O)c2ccccc2C3=O)c(C)c1.[Cl-] [Compound 4[H][Cl], 1,3-Dimesitylnaphthoquinimidazolium chloride, reference compound] | – | – | 13.6 | 990 ± 120 nM | – | −0.38 V | −1.15 V | became evident | IC50 [6]: 159 ± 58 nM; fluorescence associated cell population shift (intracellular ROS increase) (A549 cells [2]; A549, 2.5 μM, 6 h incubation): ~11 fold; IC50 (A549 lung cancer cells [4]; A549 lung cancer cells, MTT, 72 h, listed as 4, read-out: IC50): 994 nM; IC50 (A549 lung cancer cells [4]; Table 3, error is standard error of the mean, read-out: IC50 A549 Lung): 994 ± 120 nM; IC50 [7]: 626 ± 117 nM; IC50 (PC-3 prostate (p53 null)): 136 ± 20 nM
5 | COc1cccc2c1C(=O)c1c(O)c3c(c(O)c1C2=O)C[C@@](O)(C(=O)CO)C[C@@H]3O[C@H]1C[C@H](N)[C@H](O)[C@H](C)O1 [Doxorubicin, doxorubicin] | minimal or no ROS increase | little to no inhibition | 1.41 | – | no inhibition of activity | – | – | remained inactive | IC50 (A549 lung cancer cells [4]; Homo sapiens, A549 lung cancer cells, MTT, 72 h, read-out: IC50): 103 ± 23 nM; induction of apoptosis (annexin-V/PI) (A549 cells [8]): provided similar results in both the early and late stage apoptotic quadrants
6 | O=C1[O][Pt]2([NH][C@@H]3CCCC[C@H]3[NH]2)[O]C1=O [oxaliplatin, reference compound] | – | – | – | – | – | – | – | – | presence of CRT on cells (Panc-02 cells; Panc-02, 300 μM): 18.6±2.8 % of cells
